# From PMC2761990 (Molecular cancer therapeutics, 2009)
# Columns and labels:
# [1] = tested on: AKT (S473) phosphorylation; assay: AKT; assay type: cell-based, human
# U87 cells [2] = assay: Radiosurvival, Trypan blue/FACS assay, U87; assay type: cell-based, human; details: U87, 3 μM, 4 Gy, alone
# U1242 cells [3] = assay: Radiosurvival, Trypan blue/FACS assay, U1242; assay type: cell-based, human
# PI3K (p110β/p85α) = PI3K (p110β/p85α) (Homo sapiens, UniProt P42338); assay: PI3-Kinase HTRF assay; assay type: biochemical; details: read-out: PI3K (p110β/p85α) inhibited
# PI3K (p120γ) = PI3K (p120γ) (Homo sapiens, UniProt P48736); assay: PI3-Kinase HTRF assay; assay type: biochemical; details: read-out: PI3K (p120γ) inhibited
# PI3K (p110δ/p85α) = PI3K (p110δ/p85α) (Homo sapiens, UniProt O00329); assay: PI3-Kinase HTRF assay; assay type: biochemical; details: read-out: PI3K (p110δ/p85α) inhibited
# mTOR = mTOR (Homo sapiens, UniProt P42345); assay: Millipore KinaseProfiler, mTOR; assay type: biochemical; details: 1 μM
# [4] = tested on: panel of 229 protein kinases; assay: Millipore KinaseProfiler panel; assay type: biochemical; details: 1 μM; Table S1
# [5] = tested on: p53 (S15) phosphorylation; assay: IR-induced p53; assay type: cell-based, human; details: for inhibition of IR-induced p53 (S15) phosphorylation: 1 h after IR
# γ-H2AX (S139) = assay: IR-induced H2AX; assay type: cell-based, human; details: for γ-H2AX levels: 10 Gy
# [6] = tested on: CHK2 phosphorylation (T68); assay: IR-induced CHK2; assay type: cell-based, human; details: U1242, 3 μM, 5 Gy, up to 1 h after irradiation
# p53 phosphorylation = assay: IR-induced p53 phosphorylation, western blot, U1242 cells; assay type: cell-based, human; details: U1242, 3 μM, 5 Gy
# γ-H2AX = assay: IR-induced γ-H2AX, western blot, U1242 cells; assay type: cell-based, human; details: U1242, 3 μM, 5 Gy, especially at times ≤15 min
# [7] = tested on: h-TERT-immortalized normal fibroblasts; assay: Radiosurvival, Trypan blue/FACS assay, normal fibroblasts; assay type: cell-based, human; details: 10 μM, 7 days post-IR
# [8] = tested on: h-TERT-immortalized A-T fibroblasts; assay: Radiosurvival, Trypan blue/FACS assay, A-T fibroblasts; assay type: cell-based, human; details: 10 μM, 7 days post-IR
# [9] = tested on: AKT (S473) phosphorylation; assay: AKT; assay type: cell-based, human; details: U1242, 3 μM, 5 Gy
# [10] = tested on: AKT (S473) phosphorylation; assay: Insulin-stimulated AKT phosphorylation, normal fibroblasts; assay type: cell-based, human; details: NFs
# [11] = tested on: AKT (S473) phosphorylation; assay: Insulin-stimulated AKT phosphorylation, A-T fibroblasts; assay type: cell-based, human; details: A-T cells, in response to insulin
# [12] = tested on: (S136) BAD phosphorylation; assay type: cell-based; details: in vivo and in vitro (Fig. S1C, D)
# [13] = tested on: (S9) GSK3β phosphorylation; assay type: cell-based; details: in vivo and in vitro (Fig. S1C, D)
# U87 cells [14] = assay: Migration assay through 8 μm pore membranes, U87; assay type: cell-based; details: Homo sapiens, U-87 MG, 6 h, read-out: inhibition of migration
# U87 cells [15] = assay: Invasion through matrigel, U87; assay type: cell-based; details: Homo sapiens, U-87 MG, 48 h, read-out: inhibition of invasion through matrigel
# U1242 cells [16] = assay: Scratch; assay type: cell-based, human
# U1242 cells [17] = assay: Invasion through matrigel inserts, U1242; assay type: cell-based; details: Homo sapiens, 48 h, read-out: inhibition of invasion
# U1242 cells [18] = assay: Cell growth, AlamarBlue, U1242; assay type: cell-based, human; details: U1242, 3 μM, over a 5 day period
# AKT T308 phosphorylation = assay: Radiation-induced AKT T308 phosphorylation; assay type: cell-based; details: Fig. S1B
# [19] = tested on: panel of 60 protein kinases; details: cited from earlier work
# Sequence of PI3K (p110β/p85α) (P42338 whole entry): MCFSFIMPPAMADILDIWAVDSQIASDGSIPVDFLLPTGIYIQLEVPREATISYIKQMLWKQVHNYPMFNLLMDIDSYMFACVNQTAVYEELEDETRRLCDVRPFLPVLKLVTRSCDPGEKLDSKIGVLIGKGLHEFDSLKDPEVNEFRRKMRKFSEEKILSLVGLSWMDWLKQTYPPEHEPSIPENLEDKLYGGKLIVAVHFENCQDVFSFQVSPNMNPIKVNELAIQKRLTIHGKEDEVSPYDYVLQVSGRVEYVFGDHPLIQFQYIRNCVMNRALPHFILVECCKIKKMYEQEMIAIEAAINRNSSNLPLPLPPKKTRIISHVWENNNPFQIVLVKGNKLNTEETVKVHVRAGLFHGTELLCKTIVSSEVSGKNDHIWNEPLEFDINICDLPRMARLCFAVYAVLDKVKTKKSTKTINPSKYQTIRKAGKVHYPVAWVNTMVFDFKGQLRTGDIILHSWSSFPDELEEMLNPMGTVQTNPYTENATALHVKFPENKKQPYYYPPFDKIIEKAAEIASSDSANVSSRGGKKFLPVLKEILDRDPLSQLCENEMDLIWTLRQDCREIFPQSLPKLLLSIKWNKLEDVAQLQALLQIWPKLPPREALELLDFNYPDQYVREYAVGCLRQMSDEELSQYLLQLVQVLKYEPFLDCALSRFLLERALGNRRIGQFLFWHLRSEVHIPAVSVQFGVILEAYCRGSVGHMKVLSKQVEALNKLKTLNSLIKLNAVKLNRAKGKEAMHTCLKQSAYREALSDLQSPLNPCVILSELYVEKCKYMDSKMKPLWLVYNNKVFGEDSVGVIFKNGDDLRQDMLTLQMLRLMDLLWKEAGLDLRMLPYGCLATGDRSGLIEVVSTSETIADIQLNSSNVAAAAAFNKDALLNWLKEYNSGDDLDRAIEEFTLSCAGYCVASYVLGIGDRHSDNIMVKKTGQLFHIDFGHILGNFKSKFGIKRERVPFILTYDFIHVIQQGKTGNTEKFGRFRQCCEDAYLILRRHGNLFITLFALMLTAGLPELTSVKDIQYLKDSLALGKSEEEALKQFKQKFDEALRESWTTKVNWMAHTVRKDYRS
# Sequence of PI3K (p110β/p85α) (P27986 whole entry partner): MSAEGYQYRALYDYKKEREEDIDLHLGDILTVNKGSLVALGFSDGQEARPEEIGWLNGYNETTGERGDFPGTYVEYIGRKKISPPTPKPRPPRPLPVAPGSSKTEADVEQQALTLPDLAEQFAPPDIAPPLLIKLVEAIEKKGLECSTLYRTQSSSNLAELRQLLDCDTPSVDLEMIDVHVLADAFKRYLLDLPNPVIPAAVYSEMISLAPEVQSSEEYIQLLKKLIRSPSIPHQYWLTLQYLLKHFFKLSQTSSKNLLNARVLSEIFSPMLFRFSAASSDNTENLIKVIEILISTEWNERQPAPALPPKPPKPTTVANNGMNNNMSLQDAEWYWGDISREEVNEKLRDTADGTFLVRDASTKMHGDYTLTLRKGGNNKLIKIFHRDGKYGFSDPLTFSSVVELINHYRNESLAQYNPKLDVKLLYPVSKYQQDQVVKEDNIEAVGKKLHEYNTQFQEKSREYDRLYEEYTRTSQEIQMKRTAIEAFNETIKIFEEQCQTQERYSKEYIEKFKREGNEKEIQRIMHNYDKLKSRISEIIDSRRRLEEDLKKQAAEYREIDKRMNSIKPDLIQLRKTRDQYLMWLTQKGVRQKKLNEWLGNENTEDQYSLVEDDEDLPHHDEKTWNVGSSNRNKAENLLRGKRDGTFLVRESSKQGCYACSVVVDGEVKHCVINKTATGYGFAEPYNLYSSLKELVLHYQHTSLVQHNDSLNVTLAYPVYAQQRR
# Sequence of PI3K (p110δ/p85α) (O00329 whole entry): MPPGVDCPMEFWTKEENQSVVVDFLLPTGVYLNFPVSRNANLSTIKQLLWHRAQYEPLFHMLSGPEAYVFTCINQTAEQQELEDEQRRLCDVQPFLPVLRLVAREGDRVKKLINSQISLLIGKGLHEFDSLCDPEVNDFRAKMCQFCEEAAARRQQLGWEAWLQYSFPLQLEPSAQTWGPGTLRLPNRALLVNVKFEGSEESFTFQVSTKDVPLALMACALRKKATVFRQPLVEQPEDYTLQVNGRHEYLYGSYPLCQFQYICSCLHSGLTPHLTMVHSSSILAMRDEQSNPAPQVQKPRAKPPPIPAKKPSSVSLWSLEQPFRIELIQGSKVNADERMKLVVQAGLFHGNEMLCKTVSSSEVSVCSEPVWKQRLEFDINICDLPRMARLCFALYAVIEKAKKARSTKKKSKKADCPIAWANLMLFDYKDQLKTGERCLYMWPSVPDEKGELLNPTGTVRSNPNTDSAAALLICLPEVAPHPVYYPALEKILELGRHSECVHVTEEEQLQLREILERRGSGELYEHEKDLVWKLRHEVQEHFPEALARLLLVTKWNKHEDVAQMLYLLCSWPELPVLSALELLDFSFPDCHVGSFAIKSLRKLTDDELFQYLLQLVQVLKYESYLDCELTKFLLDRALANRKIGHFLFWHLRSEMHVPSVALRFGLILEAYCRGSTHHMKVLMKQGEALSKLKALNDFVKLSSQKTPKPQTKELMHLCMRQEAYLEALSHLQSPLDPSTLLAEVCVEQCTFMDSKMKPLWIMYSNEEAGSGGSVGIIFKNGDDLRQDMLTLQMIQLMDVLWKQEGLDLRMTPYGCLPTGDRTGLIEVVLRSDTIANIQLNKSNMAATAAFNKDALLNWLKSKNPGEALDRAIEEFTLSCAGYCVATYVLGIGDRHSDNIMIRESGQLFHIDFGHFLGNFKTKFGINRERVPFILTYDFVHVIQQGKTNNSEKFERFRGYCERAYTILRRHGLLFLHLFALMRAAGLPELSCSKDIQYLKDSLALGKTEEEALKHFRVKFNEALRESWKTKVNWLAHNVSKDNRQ
# Sequence of PI3K (p110δ/p85α) (P27986 whole entry partner): as the sequence (P27986 whole entry partner) above
# Sequence of PI3K (p120γ) (P48736 whole entry): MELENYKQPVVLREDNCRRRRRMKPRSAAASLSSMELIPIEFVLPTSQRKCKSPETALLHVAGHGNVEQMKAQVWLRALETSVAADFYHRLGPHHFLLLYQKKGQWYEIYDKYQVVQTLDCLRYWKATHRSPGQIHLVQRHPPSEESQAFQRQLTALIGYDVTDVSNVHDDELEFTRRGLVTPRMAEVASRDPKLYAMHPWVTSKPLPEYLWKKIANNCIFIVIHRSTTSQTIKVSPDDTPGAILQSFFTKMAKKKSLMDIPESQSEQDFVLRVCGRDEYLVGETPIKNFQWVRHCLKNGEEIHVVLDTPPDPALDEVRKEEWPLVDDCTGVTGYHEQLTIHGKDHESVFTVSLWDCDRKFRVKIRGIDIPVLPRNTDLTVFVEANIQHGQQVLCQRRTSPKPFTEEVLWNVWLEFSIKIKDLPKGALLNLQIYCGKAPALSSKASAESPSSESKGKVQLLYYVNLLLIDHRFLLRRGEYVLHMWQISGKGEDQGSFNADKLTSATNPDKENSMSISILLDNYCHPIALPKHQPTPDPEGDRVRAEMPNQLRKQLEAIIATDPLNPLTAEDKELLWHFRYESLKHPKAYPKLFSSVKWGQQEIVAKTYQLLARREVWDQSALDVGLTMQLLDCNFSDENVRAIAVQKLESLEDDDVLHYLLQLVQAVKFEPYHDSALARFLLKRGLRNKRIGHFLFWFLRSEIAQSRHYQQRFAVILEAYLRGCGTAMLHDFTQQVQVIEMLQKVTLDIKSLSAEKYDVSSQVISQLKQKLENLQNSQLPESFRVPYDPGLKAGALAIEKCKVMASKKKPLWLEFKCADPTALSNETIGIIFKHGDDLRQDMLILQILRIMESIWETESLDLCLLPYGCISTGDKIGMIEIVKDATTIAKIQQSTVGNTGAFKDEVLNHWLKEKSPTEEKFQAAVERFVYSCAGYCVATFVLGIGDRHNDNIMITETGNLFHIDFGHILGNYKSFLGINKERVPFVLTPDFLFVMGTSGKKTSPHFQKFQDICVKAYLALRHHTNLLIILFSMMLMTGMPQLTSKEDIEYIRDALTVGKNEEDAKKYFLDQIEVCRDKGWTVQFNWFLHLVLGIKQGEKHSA
smiles,measurement,setting,value
"C=C1[C@@H](O)[C@@H]2O[C@]3(CC[C@H](/C=C/[C@@H](C)[C@@H]4CC(C)=C[C@@]5(O[C@H](C[C@@](C)(O)C(=O)O)CC[C@H]5O)O4)O3)CC[C@H]2O[C@@H]1[C@@H](O)C[C@H](C)[C@H]1O[C@@]2(CCCCO2)CC[C@H]1C [OA, okadaic acid, reference compound]",increase of AKT S473 phosphorylation compared to untreated control,"[1]; U87, OA by itself",> 2 fold
same,reduction of the effect of KU-60019 on S473 phosphorylation,"[1]; U87, ≥30 nM OA with KU-60019 3 μM, 1 h",> 50%
"O=C(NOCC1CC1)c1ccc(F)c(F)c1Nc1ccc(I)cc1Cl [PD184352, reference compound]",effect on IR-induced killing,U87 cells [2],small but significant effect
same,effect on radiosurvival,"U1242 cells [3]; U1242, alone (Fig. S5)",slightly radioprotective
"C[C@@H]1CN(CC(=O)Nc2ccc3c(c2)Cc2cccc(-c4cc(=O)cc(N5CCOCC5)o4)c2S3)C[C@H](C)O1 [KU-60019, 2-((2R, 6S)-2,6-Dimethyl-morpholin-4-yl)-N-[5-(6-morpholin-4-yl-4-oxo-4H-pyran-2-yl)-9H-thioxanthen-2-yl]-acetamide]",inhibition at 1 µM,PI3K (p110β/p85α),9%
same,inhibition at 1 µM,PI3K (p120γ),3%
same,inhibition at 1 µM,PI3K (p110δ/p85α),27%
same,mTOR inhibition,mTOR,not inhibited
same,non-specific target effects against a panel of 229 protein kinases,[4],little to no non-specific target effects
same,inhibition of IR-induced p53 (S15) phosphorylation,"[5]; U87, 1 μM, 10 Gy",partial inhibited
same,p53 (S15) phosphorylation blocked,"[5]; U87, 1 μM, after IR",> 70%
same,inhibition of p53 phosphorylation,"[5]; U87, 3 μM, 10 Gy, 15 min post-IR",completely inhibited
same,inhibition of IR-induced p53 (S15) phosphorylation,"[5]; U87, 3 μM, 10 Gy",completely inhibited
same,γ-H2AX levels,"γ-H2AX (S139); U87, 3 μM, 15 min",reduced significantly
same,effect on H2AX phosphorylation,"γ-H2AX (S139); U87, 10 Gy, 1 h after irradiation",little to no effect
same,inhibition of radiation-induced CHK2 phosphorylation (T68),[6],completely inhibited
same,inhibition of p53 phosphorylation,p53 phosphorylation,completely inhibited
same,inhibition of γ-H2AX,γ-H2AX,partially inhibited
same,radiosensitization,"U1242 cells [3]; U1242, 3 μM, 4 days post-IR, level between that of U87 cells treated with 1 and 10 μM",radiosensitized
same,radiosensitization,[7],radiosensitized
same,radiosensitization,[8],not radiosensitized
same,effect on radiation-induced increase in phospho-AKT (S473),"[1]; U87, 3 μM, 5 Gy",almost completely blocked
same,earliest time of effect on S473 dephosphorylation after addition of drug,"[1]; U87, 3 μM, drug alone",5 min
same,reduction in AKT phosphorylation,"[1]; U87, insulin-stimulated",~ 50%
same,reduction of basal AKT S473 phosphorylation,[1]; pooled data from several independent experiments (Fig. S1A),70%
same,effect on basal and radiation-induced AKT S473 phosphorylation,[9],almost completely abrogated
same,reduction of AKT phosphorylation,[10],~ 45%
same,effect on S473 phosphorylation,[11],did not affect
same,effect on phosphorylation of (S136) BAD,[12],reduced
same,effect on phosphorylation of (S9) GSK3β,[13],reduced
same,inhibition at 10 µM,U87 cells [14],≥ 70%
same,inhibition at 3 µM,U87 cells [15],~60%
same,inhibition at 3 µM,"U1242 cells [16]; Homo sapiens, read-out: inhibition of migration (scratch assay)",≥ 50%
same,rate of gap closure slower than untreated,"U1242 cells [16]; U1242, 3 μM, at 10 h",50%
same,inhibition at 3 µM,U1242 cells [17],~60%
same,suppression of growth,U1242 cells [18],~ 40%
"O=c1cc(-c2cccc3c2Sc2ccccc2S3)oc(N2CCOCC2)c1 [KU-55933, reference compound]",inhibition of IR-induced p53 (S15) phosphorylation,"[5]; U87, 3 μM, 10 Gy",not at 3 μM
same,inhibition of IR-induced p53 (S15) phosphorylation,"[5]; U87, 10 μM, 10 Gy",completely inhibited
same,γ-H2AX levels,"γ-H2AX (S139); U87, 10 μM, 1 h after irradiation",only partly reduced
same,effect on radiation-induced AKT T308 phosphorylation,AKT T308 phosphorylation,attenuated
same,effect on phosphorylation of (S136) BAD,[12],reduced
same,effect on phosphorylation of (S9) GSK3β,[13],reduced
same,specificity using a panel of 60 protein kinases,[19],highly specific for the ATM kinase
